Data from patent publication US20220152117A1, “METHODS OF PROMOTING CELLULAR MATURATION WITH AMPK ACTIVATORS” (UNIVERSITY OF WASHINGTON, priority 2019, published 2022).

Columns and labels:
Format in all cases: cell-based, human
hPSC-CMs [1] = assay: Western blotting with phospho-specific antibodies (pACC, pAMPK, pAkt, pERK, p-p38-MAPK)
Experimental: Total protein was acquired from control cardiomyocytes or cardiomyocytes after two weeks of AICAR treatment and subjected to SDS-PAGE. The lanes were loaded with equal amount of protein and were checked by Ponceau S staining. After blocking with 5% milk, the membranes were incubated with anti-pACC ([…]) rabbit polyclonal antibody (Cell Signaling Technology), anti-pAMPK, anti-pAkt, anti-pERK, anti-p38-MAPK, or anti-GAPDH mouse monoclonal antibody (Abcam) overnight while shaking at 4° C. After incubation with anti-rabbit (for pACC) and anti-mouse (for GAPDH, pAMPK, pAkt, pERK, and p-p38-MAPK) horseradish peroxidase-coupled secondary antibody (Santa Cruz Biotechnology®), bands were visualized with SuperSignal West Femto Trial KitTM (Thermo Scientific®). The immunoblots band densities were analyzed in Image J.

hiPSC-derived neurons = assay: mtDNA:nDNA ratio by quantitative PCR in neurons; details: two weeks of treatment with AICAR every third day
hPSC-CMs [2] = assay: Immunocytochemistry, imaging and morphological analysis (cell size, circularity index)
Experimental: Cells were fixed in 4% paraformaldehyde for 10 min followed by PBS wash. The fixed cells were blocked with 1.5% normal goat serum for 1 hour at room temperature and incubated overnight at 4° C. with primary antibodies. Mouse anti-α-actinin (Sigma) was used. The samples were rinsed with PBS and incubated with a secondary antibody. Samples subjected to F-actin staining were incubated with TRITC-labeled phalloidin (Sigma) for 5 min at room temperature. Nuclei were stained with Hoechst 33342. Fluorescent images were acquired using a Zeiss AxioCam™ mounted on a Zeiss AxioObserver Microscope™, and confocal images were processed and quantified using NIS Elements. Each cell was analyzed for cell size and circularity index.

Compound: NC(=O)c1ncn([C@@H]2O[C@H](CO)[C@@H](O)[C@H]2O)c1N [AICAR, 5-amino-4-imidazolecarboxamide riboside-1-β-D-ribofuranoside]
- phopho-p38-MAPK (hPSC-CMs [1]; 1 mM AICAR, time course): Transient increases
- phospho-ERK (hPSC-CMs [1]; 1 mM AICAR, time course): Transient increases
- phospho-Thr172-AMPK phosphorylation (hPSC-CMs [1]; 1 mM AICAR, time course): rapid robust transient
- phosphorylation of Akt at Ser473 (hPSC-CMs [1]; 1 mM AICAR, time course): increased
- phosphorylation of Ser79-ACC (hPSC-CMs [1]; 1 mM AICAR, time course): rapid, time-dependent increase
- phospho-ACC (Ser 79) level by immunoblot vs control cells (hPSC-CMs [1]; two weeks of AICAR treatment, same exposure conditions): more than one thousand-fold increase
- mtDNA/nDNA ratio in neurons (hiPSC-derived neurons): increase
- circularity index (hPSC-CMs [2]; AICAR-treated hPSC-CMs, control 0.51±0.01): 0.40±0.02
- cell area (hPSC-CMs [2]; AICAR-treated hiPSC-CMs, control 1141±40): 2321±120 μm^2
